Reference: patent US12049662B2, “Rapid antimicrobial susceptibility testing by video-based object scattering intensity detection” (ARIZONA BOARD OF REGENTS ON BEHALF OF ARIZONA STATE …, priority 2021, dated 2024)

What was measured:
[1] = system: S. saprophyticus ATCC 15305; assay: OSID-AST (object scattering intensity detection) with pure S. saprophyticus culture; conditions: 2 μg/ml ciprofloxacin
Description: ICt is the integrated object scattering intensity of samples without antibiotics at time t, IC0 is the initial intensity of the same sample. ΔIC=ICt−IC0 and ΔIABX=IABXt−IABX0, represent the integrated object scattering intensity change at time t for antibiotic-untreated (control) and -treated samples, respectively. […] For antibiotic resistance detection, the integrated object intensity change over time in the raw sample (ΔIC=ICt−IC0) and in the antibiotic treated sample (ΔIABX=IABXt−IABX0) are calculated. If the ratio between the two (ΔIABX/ΔIC) is above a resistant threshold (TR), or ΔIABX/ΔIC>TR, which indicates insufficient bacterial inhibition by the antibiotic, the sample is identified as resistant. If the ratio is at or below TR, bacteria growth is inhibited by the antibiotic, and the sample is defined as susceptible to that antibiotic.

E. coli ATCC 25922 = assay: OSID-AST (object scattering intensity detection) with pure E. coli culture; format: cell-based; conditions: 32 μg/ml nitrofurantoin or 2 μg/ml ciprofloxacin, 5 representative tests
Protocol: The integrated object scattering intensity quantification enables detection of bacterial infection and AST for infection positive samples with an algorithm such as that depicted in FIG. 1C. Two test solutions are prepared from a patient's sample. One solution with medium and antibiotics for AST and the other one with medium only as control. To detect bacterial infection, the integrated object scattering intensity in the control group is quantified over time (e.g., the object scattering intensity is measured every 5 min with the 1 min video and for a total of 90 min). Clinical decision determination is based on integrated object scattering intensity. […] Otherwise, the sample is determined as infection negative. For antibiotic resistance detection, the integrated object intensity change over time in the raw sample (ΔIC=ICt−IC0) and in the antibiotic treated sample (ΔIABX=IABXt−IABX0) are calculated. […]
To establish the method, E. coli and S. saprophyticus cultures (see Materials and Methods) with and without antibiotics were imaged for bacteria growth measurements. […] The integrated object intensity of all cells was quantified with a 1 min duration video in every 5 min interval for a total of 90 min after real-time background removal processing. […] To accurately track E. coli growth, the averaged intensity of a 1 min video was quantified in every 5 min.

Compound | ΔIABX/ΔIC ([1]; 90 min, resistance threshold 0.5) | object intensity change of antibiotic treated sample ([1]; 90 min detection, control sample ~1.7 times) | antibiotic susceptibility determination with OSID-AST ([1]; threshold 0.5) | time at which antibiotic susceptibility of E. coli cells can be determined (object intensity detection) (E. coli ATCC 25922)
O=C(O)c1cn(C2CC2)c2cc(N3CCNCC3)c(F)cc2c1=O [ciprofloxacin] | ~0.14 | ~1.1 times | susceptible | 60 min
O=C1CN(/N=C/c2ccc([N+](=O)[O-])o2)C(=O)N1 [nitrofurantoin] |  |  |  | 40 min
